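Test compounds were applied to cells in 96-well plates for 48 hours at 5 doses. TGI marks complete inhibition of growth.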
Tests used:
Assay in all cases: inhibition of tumour cell growth, NCI panel, 48 h
[1] = system: 786-0 renal
[2] = system: A498 renal
[3] = system: A549 NSCLC
[4] = system: ACHN renal
[5] = system: BT-549 breast
[6] = system: CAKI-1 renal
[7] = system: CCRF-CEM leukemia
[8] = system: COLO 205 colon
[9] = system: DU-145 prostate
[10] = system: EKVX NSCLC
[11] = system: HCT-116 colon
[12] = system: HCT-15 colon
[13] = system: HL-60(TB) leukemia
[14] = system: HOP-62 NSCLC
[15] = system: HOP-92 NSCLC
[16] = system: HS 578T breast
[17] = system: HT29 colon
[18] = system: IGROV1 ovarian
[19] = system: K-562 leukemia
[20] = system: KM12 colon
[21] = system: LOX IMVI melanoma
[22] = system: M14 melanoma
[23] = system: MALME-3M melanoma
[24] = system: MCF7 breast
[25] = system: MDA-MB-231 breast
[26] = system: MDA-MB-435
[27] = system: MDA-N
[28] = system: MOLT-4 leukemia
[29] = system: NCI-H226 lung
[30] = system: NCI-H23 lung
[31] = system: NCI-H460 lung
[32] = system: NCI-H522 lung
[33] = system: NCI/ADR-RES ovarian
[34] = system: OVCAR-3 ovarian
[35] = system: OVCAR-4 ovarian
[36] = system: OVCAR-5 ovarian
[37] = system: OVCAR-8 ovarian
[38] = system: PC-3 prostate
[39] = system: RPMI-8226 leukemia
[40] = system: RXF 393 renal
[41] = system: SF-268 CNS
[42] = system: SF-295 CNS
[43] = system: SF-539 CNS
[44] = system: SK-MEL-2 melanoma
[45] = system: SK-MEL-28 melanoma
[46] = system: SK-MEL-5 melanoma
[47] = system: SK-OV-3 ovarian
[48] = system: SN12C renal
[49] = system: SNB-19 CNS
[50] = system: SNB-75 CNS
[51] = system: SR leukemia
[52] = system: SW-620 colon
[53] = system: T-47D breast
[54] = system: TK-10 renal
[55] = system: U251 CNS
[56] = system: UACC-257 melanoma
[57] = system: UACC-62 melanoma
[58] = system: UO-31 renal
[59] = system: HCC-2998 colon

## Cc1[nH]c(N)nc(=S)c1CCCNc1ccccc1
[1]
  TGI: > 100 µM
[2]
  TGI: 92.4 µM
[3]
  TGI: > 100 µM
[4]
  TGI: > 100 µM
[5]
  TGI: > 100 µM
[6]
  TGI: > 100 µM
[7]
  TGI: > 100 µM
[8]
  TGI: 66.9 µM
[9]
  TGI: > 100 µM
[10]
  TGI: > 100 µM
[11]
  TGI: > 100 µM
[12]
  TGI: > 100 µM
[13]
  TGI: > 100 µM
[14]
  TGI: > 100 µM
[15]
  TGI: > 100 µM
[16]
  TGI: > 100 µM
[17]
  TGI: > 100 µM
[18]
  TGI: > 100 µM
[19]
  TGI: > 100 µM
[20]
  TGI: > 100 µM
[21]
  TGI: > 100 µM
[22]
  TGI: > 100 µM
[23]
  TGI: 99 µM
[24]
  TGI: > 100 µM
[25]
  TGI: > 100 µM
[26]
  TGI: > 100 µM
[27]
  TGI: > 100 µM
[28]
  TGI: 21.1 µM
[29]
  TGI: > 100 µM
[30]
  TGI: > 100 µM
[31]
  TGI: > 100 µM
[32]
  TGI: > 100 µM
[33]
  TGI: > 100 µM
[34]
  TGI: > 100 µM
[35]
  TGI: > 100 µM
[36]
  TGI: > 100 µM
[37]
  TGI: > 100 µM
[38]
  TGI: > 100 µM
[39]
  TGI: > 100 µM
[40]
  TGI: > 100 µM
[41]
  TGI: > 100 µM
[42]
  TGI: > 100 µM
[43]
  TGI: > 100 µM
[44]
  TGI: > 100 µM
[45]
  TGI: > 100 µM
[46]
  TGI: 80 µM
[47]
  TGI: > 100 µM
[48]
  TGI: > 100 µM
[49]
  TGI: > 100 µM
[50]
  TGI: > 100 µM
[51]
  TGI: 96.9 µM
[52]
  TGI: > 100 µM
[53]
  TGI: > 100 µM
[54]
  TGI: > 100 µM
[55]
  TGI: > 100 µM
[56]
  TGI: > 100 µM
[57]
  TGI: > 100 µM
[58]
  TGI: > 100 µM

## COc1ncnc2c(Cl)c(C(O)c3ccccc3)c(Cl)cc12 (centres undefined)
[2]
  TGI: 53.2 µM
[3]
  TGI: > 100 µM
[4]
  TGI: 97.2 µM
[5]
  TGI: 66.1 µM
[6]
  TGI: > 100 µM
[8]
  TGI: > 100 µM
[9]
  TGI: > 100 µM
[10]
  TGI: > 100 µM
[11]
  TGI: 44.1 µM
[12]
  TGI: > 100 µM
[13]
  TGI: > 100 µM
[14]
  TGI: 32.5 µM
[15]
  TGI: 65.4 µM
[16]
  TGI: 49.9 µM
[17]
  TGI: > 100 µM
[18]
  TGI: > 100 µM
[19]
  TGI: 69.3 µM
[20]
  TGI: > 100 µM
[21]
  TGI: > 100 µM
[22]
  TGI: 89.9 µM
[23]
  TGI: 83 µM
[24]
  TGI: > 100 µM
[25]
  TGI: 58.6 µM
[26]
  TGI: 21.3 µM
[27]
  TGI: 18.7 µM
[28]
  TGI: > 100 µM
[30]
  TGI: > 100 µM
[31]
  TGI: > 100 µM
[32]
  TGI: > 100 µM
[33]
  TGI: > 100 µM
[34]
  TGI: > 100 µM
[35]
  TGI: > 100 µM
[36]
  TGI: > 100 µM
[37]
  TGI: > 100 µM
[38]
  TGI: > 100 µM
[39]
  TGI: 66.4 µM
[40]
  TGI: 35.5 µM
[41]
  TGI: 57.7 µM
[42]
  TGI: 68.2 µM
[43]
  TGI: 50.2 µM
[44]
  TGI: > 100 µM
[45]
  TGI: > 100 µM
[46]
  TGI: > 100 µM
[47]
  TGI: 49 µM
[48]
  TGI: 86.8 µM
[49]
  TGI: 79.9 µM
[50]
  TGI: 97.8 µM
[51]
  TGI: 22.7 µM
[52]
  TGI: 92.6 µM
[53]
  TGI: > 100 µM
[54]
  TGI: 63.4 µM
[55]
  TGI: > 100 µM
[56]
  TGI: > 100 µM
[57]
  TGI: 52.1 µM
[58]
  TGI: > 100 µM

## NC(=O)NC(=O)Nc1ccc(Br)cc1
[1]
  TGI: > 100 µM
[2]
  TGI: > 100 µM
[3]
  TGI: > 100 µM
[4]
  TGI: > 30.3 µM
[5]
  TGI: > 100 µM
[6]
  TGI: > 35.1 µM
[7]
  TGI: > 15.3 µM
[8]
  TGI: > 28.8 µM
[9]
  TGI: > 100 µM
[10]
  TGI: 48.4 µM
[59]
  TGI: > 31.9 µM
[11]
  TGI: > 49.6 µM
[12]
  TGI: > 65.4 µM
[13]
  TGI: > 6.62 µM
[14]
  TGI: > 30.8 µM
[15]
  TGI: > 100 µM
[16]
  TGI: > 100 µM
[18]
  TGI: > 100 µM
[19]
  TGI: > 100 µM
[20]
  TGI: > 32.8 µM
[21]
  TGI: > 56.9 µM
[22]
  TGI: > 45.1 µM
[23]
  TGI: > 27.9 µM
[24]
  TGI: > 100 µM
[25]
  TGI: > 42.1 µM
[26]
  TGI: > 22 µM
[27]
  TGI: > 100 µM
[28]
  TGI: > 100 µM
[29]
  TGI: > 39.1 µM
[30]
  TGI: > 33.3 µM
[31]
  TGI: > 36.4 µM
[32]
  TGI: > 40 µM
[33]
  TGI: > 63.5 µM
[34]
  TGI: > 20.7 µM
[35]
  TGI: > 38.5 µM
[36]
  TGI: > 100 µM
[37]
  TGI: > 34.6 µM
[38]
  TGI: > 100 µM
[39]
  TGI: > 35 µM
[40]
  TGI: > 100 µM
[41]
  TGI: > 16.5 µM
[42]
  TGI: > 100 µM
[43]
  TGI: > 100 µM
[44]
  TGI: > 20.7 µM
[45]
  TGI: > 17.7 µM
[46]
  TGI: > 18.6 µM
[47]
  TGI: > 100 µM
[48]
  TGI: > 100 µM
[49]
  TGI: > 39.3 µM
[51]
  TGI: > 100 µM
[52]
  TGI: > 29.4 µM
[53]
  TGI: > 100 µM
[54]
  TGI: > 100 µM
[55]
  TGI: > 52.3 µM
[56]
  TGI: > 100 µM
[58]
  TGI: > 100 µM

Reference: PubChem BioAssay (NCI)
